In patent publication US20250066452A1, “SYNTHETIC AMPHIPATHIC HELICAL PEPTIDES AND TREATMENT METHODS USING SYNTHETIC AMPHIPATHIC HELICAL PEPTIDES” (UNIVERSITY OF MARYLAND, BALTIMORE, priority 2022, published 2025):
No end group written: not given here.

Tests used:
mice = assay: Observation of adverse effects on repetitive daily skin application; assay type: in vivo
[1] = tested on: wild-type (WT) HEK293 cells; assay: IL-8 in conditioned medium (ELISA) of wild-type HEK293 cells after 20 hours incubation with CD36 ligands; assay type: cell-based; conditions: wildtype HEK293 cells; increasing ligand concentrations; 20 hours (FIG. 8)
Procedure: (§1) Following 20 hours incubation of wild-type (WT) and CD36-expressing (CD36+) HEK293 cells with increasing concentrations of CD36 ligands, the IL-8 levels were determined in conditioned medium by ELISA.
(§2) To study this, the applicant conducted cell culture experiments using wildtype (WT) and CD36+ expressing (CD36+) HEK293 cells, treated with increasing amounts of CD36 ligands. Specifically, the ligands tested were the PAMP lipopolysaccharide (LPS) and the DAMPs high mobility group box 1 protein (HMGB1), Histone H3B, and heat shock protein 60 (HSP60). […] Similarly to HSP60, it is presumed that HSP70 and HSP90 also cause inflammation mediated by the CD36 receptor, and which may be alleviated by the disclosed peptides.

CD36 = target: T1, CD36 (Homo sapiens, UniProt P16671); assay: IL-8 in conditioned medium (ELISA) of CD36-expressing HEK293 cells after 20 hours incubation with CD36 ligands; assay type: cell-based; conditions: for IL-8 produced by cells treated with the ligand: CD36-expressing HEK293 cells, increasing ligand concentrations, 20 hours (FIG. 8)
T1 construct: expressed in transfected cells; host or cells: HEK293
Procedure: as §1
Following 20 hours incubation of CD36-expressing cells with the indicated amounts of the ligands, the IL-8 levels were determined in conditioned medium.
as §2
Additionally, the applicant studied the effects of the above-referenced SAHP L37pA as an inhibitor of CD36-dependent, PAMP/DAMP-induced pro-inflammatory response. See FIGS. 9(a)-9(c) To study this, the applicant conducted cell culture experiments using CD36+ HEK293 cells, treated with increasing amounts of CD36 ligands. […] As controls, no treatment, L37pA alone, and L3D alone were administered.
As controls, no treatment, L37pA alone, and L3D alone were administered. […] L37pA was especially effective in the case of 1 μg/ml and 2.5 μg/ml HMGB1, relative to administrations of HMGB1 alone.
In FIG. 9(c), the DAMP Histone H3B was administered in the amount of 25 μg/ml alone, in combination with 10 μg/ml L37pA, 25 μg/ml L37pA, 10 μg/ml L3D and 25 µg/ml L3D. As controls, no treatment, 10 μg/ml L37pA alone, 25 μg/ml L37pA alone, 10 μg/ml L3D alone, and 25 μg/ml L3D alone were administered.

[2] = tested on: Complete Freund's Adjuvant (CFA) animal model of chronic inflammatory pain; assay: Thermal hyperalgesia test (incremental hot plate) in CFA model of chronic inflammatory pain; assay type: in vivo, mice; conditions: for heat hyperalgesia compared to the inactive L3D-L37pA peptide: Example 3, FIGS. 5(a)-5(e), topical application once a day; for withdrawal latencies to thermal stimuli: CFA in left paw
Procedure: The L37pA peptide having the sequence […] (SEQ ID NO: 2) was synthesized by a solid-phase procedure. […] The L37pA and L3D-37pA peptides were formulated into both an intramuscular injectable preparation and a hydrogel or lotion preparation. The intramuscular (IM) injectable formulation contains 0.5 μg/μl of the peptide, with an injection dose of 2 μl/g mouse weight, which equals approximately 20 μg peptide per injection. The hydrogel and lotion formulations each contains 0.2 mg/ml of the peptide. 20-50 μl of the formulations are applied, which is approximately 4-10 μg peptide per single skin treatment. Topical hydrogel and lotion formulations containing a vehicle without any peptide were prepared as additional negative controls.
In this experiment, the peptide was administered via intramuscular injections. The first group of mice (“CFA group”) were injected with 30 μl of Complete Freund's Adjuvant (CFA) in the plantar surface of the left hind paw. The second group of mice (“Vehicle Group”) were injected with Vehicle (saline) instead of CFA. For each of the CFA and Vehicle Groups, the mice were then injected once a day with the following formulations, with “n” representing the number of mice receiving each formulation: […]
Thermal hyperalgesia was performed before the CFA injection. The measurement of baseline thermosensitivity was actually carried out before time 0, but it was assumed that the baseline remained the same at time 0. Injection of CFA in the paw and the intramuscular injection of peptide were performed at the same time. Injections of CFA and peptides were performed in left paws. The right paws of the mice remained intact and were used for comparison.
After administering the L37pA or L3D-37pA peptide, the thermal hyperalgesia test was performed for 30 minutes at 3, 24, and 72 hours post CFA-injection. In the thermal hyperalgesia test, an incremental hot plate with an automatic cut-off temperature of 50° C. was used to induce the nocifensive behaviors of licking a hind paw to identify the thresholds for noxious heat and assess the thermal hyperalgesia. The temperature of the plate at the time when the licking occurred was recorded. The peptides were injected every single day and at 30 minutes prior to the behavior test. In addition, to investigate the effects of the peptides on inflammatory swelling caused by the CFA injection, the thicknesses of the left and right hind paws of the mice were measured post-peptide administration for signs of inflammation. In the figures, *p≤0.05, **p≤0.01, and ***p≤0.001 show comparisons to the Vehicle/L3D-37pA controls at each timepoint.
In this experiment, the peptide was administered topically once a day. The first group of mice (“CFA group”) were injected with 30 μl of Complete Freund's Adjuvant (CFA) in the plantar surface of the left hind paw. The second group of mice (“Vehicle Group”) were injected with Vehicle (saline) instead of CFA. For each of the CFA and Vehicle groups, the topical formulation was then administered to the mice according to the following experiment design:
The topical application of the peptides was carried out 21 hours after the saline or CFA injection and applied […] in the following days. In case of topical application of peptide, the peptides were applied 3 hours before the second measurement of thermosensitivity and applied […] afterwards. Thermal hyperalgesia was performed before administration and after administering the L37pA, L3D-37 pA, or vehicle, at 30 minutes after administration. The thermal hyperalgesia test was performed as described above. In addition, the thicknesses of the left and right hind paws of the mice were measured post-peptide administration for signs of inflammation. In the figures, *p 0.05, **p 0.01, and ***p 0.001 show comparisons to the saline/L3D-37pA controls at each timepoint.
The applicant performed heat hyperalgesia tests similar to the manner discussed above in Example 1. […]

T1 sequence (P16671 whole entry): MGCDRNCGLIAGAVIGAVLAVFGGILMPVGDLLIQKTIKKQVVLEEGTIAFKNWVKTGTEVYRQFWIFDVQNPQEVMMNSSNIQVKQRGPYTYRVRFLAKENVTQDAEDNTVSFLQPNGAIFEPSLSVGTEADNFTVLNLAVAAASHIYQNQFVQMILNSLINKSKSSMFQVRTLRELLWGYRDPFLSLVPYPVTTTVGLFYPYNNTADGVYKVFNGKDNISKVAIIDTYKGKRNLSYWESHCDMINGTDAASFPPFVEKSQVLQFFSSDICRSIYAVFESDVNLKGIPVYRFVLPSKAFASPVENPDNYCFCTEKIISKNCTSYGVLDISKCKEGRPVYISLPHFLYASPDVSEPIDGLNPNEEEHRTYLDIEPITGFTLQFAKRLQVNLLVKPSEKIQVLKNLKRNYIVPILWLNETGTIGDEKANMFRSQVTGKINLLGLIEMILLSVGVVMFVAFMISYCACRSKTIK

With “DWLKAFYDKVAEKLKEAFPDWLKAFYDKVAEKLKEAF [Peptide L37pA]” the “skin irritation or other adverse side effects” value (mice; chronic topical administration in the therapeutic range of doses) was “does not induce skin irritation or other adverse side effects” and the “adverse effects (general toxicity, behavioral changes, weight loss, skin redness, skin erosions)” value (mice; up to 14 repetitive daily skin applications of hydrogel formulation) was “no adverse effects”.
lipopolysaccharide [LPS] was tested, and the “IL-8 produced by cells treated with the ligand” value (from here on “IL-8 produced by cells treated”) [1] was “minimal amount of interleukin 8” and the “IL-8 produced by cells treated” value (CD36) was “significant amount of IL-8”.
For “EKLLELLKKLLELLKKLLPEKLLELLKKLLELLKKLL [ELK-B]”, the “heat hyperalgesia compared to the inactive L3D-L37pA peptide” value ([2]; CFA) was “slightly improved heat hyperalgesia compared to the active L3D-L37pA peptide at 1 day, and similar heat hyperalgesia at other timepoints”.
“L3D-37pA: inactive L37pA peptide where three L-lysine's in each A18 were replaced with D-lysine's disrupting the helical structure; negative control (DWLKAFYDKVAEKLKEAFPDWLKAFYDKVAEKLKEAF; also: three of the four Lys in each A18 segment are D-Lys, places not given here) [Peptide L3D-37pA]” was tested, and the “withdrawal latencies to thermal stimuli” value ([2]; intramuscular peptide approx. 20 μg per injection once a day, 3 hours after CFA (FIG. 2(a))) was “reduction was even more exaggerated”, the “withdrawal latencies to thermal stimuli” value ([2]; intramuscular peptide approx. 20 μg per injection once a day, 24 hours after CFA (FIG. 2(a))) was “only showed a minimal increase” and the “withdrawal latencies to thermal stimuli” value ([2]; intramuscular peptide approx. 20 μg per injection once a day, three days after CFA (FIG. 2(a))) was “still showed a significant reduction of withdrawal latencies”. For the same substance, the “withdrawal latencies to thermal stimuli” value ([2]; topical application 0.2 mg/ml, 24 hours and 3 days after CFA (FIG. 3(a))) was “remained reduced with only slight increase”, the “pain sensation in response to stimuli” value ([2]; CFA model, topical hydrogel or lotion, and local intramuscular injection) was “did not show any pain-reducing activities” and the “paw withdrawal temperature of inflamed paws” value ([2]; CFA, topical hydrogel or local intramuscular injection, within 3 days post-CFA (FIGS. 2(a), 3(a))) was “without effect”. For the same substance, the “heat hyperalgesia (response temperature)” value ([2]; Example 2, FIG. 4, CFA, intramuscular injection, 24 h, 3 d, 7 d) was “did not reduce heat hyperalgesia at any time point”, the “production of IL-8 relative to LPS alone” value (CD36; 10 ng/ml and 100 ng/ml LPS, 10 μg/ml peptide, CD36+ HEK293 cells, 20 hours) was “ineffective or only slightly effective” and the “production of IL-8 relative to Histone H3B alone” value (CD36; 25 μg/ml Histone H3B, 10 μg/ml and 25 μg/ml peptide, CD36+ HEK293 cells, 20 hours) was “ineffective or only slightly effective”. For the same substance, the “production of IL-8 relative to HMGB1 alone” value (CD36; 0.25, 1 and 2.5 μg/ml HMGB1, 10 μg/ml peptide, CD36+ HEK293 cells, 20 hours) was “ineffective or only slightly effective”.
“high mobility group box 1 protein [HMGB1]” was tested, and the “IL-8 produced by cells treated” value [1] was “minimal amount of interleukin 8” and the “IL-8 produced by cells treated” value (CD36) was “significant amount of IL-8”.
“EKLLELLKKLLELLKKLLPDWLKAFYDKVAEKLKEAF [ELK-B-P-18A]” was tested, and the “heat hyperalgesia compared to the inactive L3D-L37pA peptide” value ([2]; CFA) was “improved heat hyperalgesia compared to the inactive L3D-L37pA peptide at 3 hours, and particularly improved heat hyperalgesia at 7 days”.
